What was measured:
[1] = Dependence of fluorescence emission spectra on solvent; type: physicochemical; conditions: 1 μM; MeOH and aqueous buffer (50 mM Tris pH 7.5) vs DMSO; excitation 488 nm
Protocol: Solutions of Compound 5 (1 μM) were prepared in dimethylsulfoxide (DMSO), methanol (MeOH) and aqueous buffer (50 mM Tris pH 7.5). 2 mL portions of these solutions were transferred to 10 mm×10 mm quartz cuvettes and fluorescence emission spectra were recorded on a Hitachi F-4500 spectrofluorometer using identical instrument detection sensitivity settings. Excitation was at 488 nm in all cases. For the DMSO and MeOH solutions, the spectra were re-scanned after addition of a small amount of 0.1 M NaOH to the 2 mL solution sample. Results are plotted in FIG. 3A and FIG. 3B. FIG. 3B represents an approximately 10-fold enlargement on the y-axis of FIG. 3A.

[2] = target: bovine serum albumin (BSA) (Bos taurus, UniProt P02769); conditions: excitation 488 nm
Protocol: A solution of Compound 5 (1 μM) was prepared in phosphate-buffered saline (PBS) (50 mM phosphate buffer, pH 7.4, 150 mM NaCl). A 2 mL portion of this solution was transferred to a 10 mm×10 mm quartz cuvette. The fluorescence emission spectrum of the solution was recorded on a Hitachi F-4500 spectrofluorometer using excitation at 488 nm. 1 μL of a 4.5 mM solution of bovine serum albumin (30% (w/v) BSA (Sigma Chemical Co., St. Louis, Mo., catalog number A-7284)) was then added to the 2 mL of aqueous dye solution. The emission scan measurement was then repeated. Further measurements were made as the amount of added BSA was increased up to 4.5 μM.

bovine serum albumin (BSA), sequence (P02769 25-607): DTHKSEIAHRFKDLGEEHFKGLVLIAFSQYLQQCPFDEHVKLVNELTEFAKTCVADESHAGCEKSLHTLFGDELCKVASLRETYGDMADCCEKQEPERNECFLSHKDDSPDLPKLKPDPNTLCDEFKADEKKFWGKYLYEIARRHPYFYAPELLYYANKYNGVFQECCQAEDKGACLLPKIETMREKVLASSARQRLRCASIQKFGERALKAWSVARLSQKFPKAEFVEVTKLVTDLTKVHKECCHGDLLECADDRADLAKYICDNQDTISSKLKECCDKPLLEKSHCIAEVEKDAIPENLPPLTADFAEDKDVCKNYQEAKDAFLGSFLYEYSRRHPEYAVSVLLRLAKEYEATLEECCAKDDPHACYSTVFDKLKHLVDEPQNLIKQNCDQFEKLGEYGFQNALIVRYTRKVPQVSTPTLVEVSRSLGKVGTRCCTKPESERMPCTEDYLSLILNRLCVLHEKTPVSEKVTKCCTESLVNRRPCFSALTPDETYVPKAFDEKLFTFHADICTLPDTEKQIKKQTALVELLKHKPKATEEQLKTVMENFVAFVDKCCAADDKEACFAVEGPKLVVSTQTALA

fluorescence of the dye in MeOH and aqueous buffer relative to that in DMSO [1]: extremely weak fluorescence | change of fluorescence upon binding to BSA ([2]; 1 μM dye in PBS pH 7.4, BSA 0-5 μM): fluorescence enhancement | fluorescence emission peak ([2]; in PBS with BSA): 540 nm
Structure (SMILES): CC(=O)O.Cc1c2ccccc2c(-c2cc3c(-c4ccccc4C(=O)O)c4cc(Cl)c(O)cc4oc-3cc2=O)c2ccccc12 [Compound 5]

Reference: patent US8173698B2, “Environmental sensitive fluorogenic compounds and their application for singlet oxygen and protein detection” (priority 2003, dated 2012)
